According to US20220119354A1, “DIAMINO-SUBSTITUTED PYRIDINES AND PYRIMIDINES AS HERBICIDES” (FMC Corporation, priority 2019, published 2022):

How the values were obtained:
Assay type in all cases: in vivo
[1] = tested on: barnyardgrass (Echinochloa crus-galli); assay: Test A preemergence, barnyardgrass; conditions: 0 to 100 scale, 0 is no effect, 100 is complete control
Summary of the method: (§1)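 Visual injury scores (0 no effect to 100 complete control) were assigned about 10 d after treatment by comparison with untreated controls. Test chemicals, formulated in a surfactant-containing non-phytotoxic solvent, were applied to soil at planting or to plants at the one- to two-leaf stage.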

kochia (Kochia scoparia) [2] = assay: Test A preemergence, kochia; conditions: 0 to 100 scale, 0 is no effect, 100 is complete control
Summary of the method: as §1

[3] = tested on: ragweed (common ragweed, Ambrosia elatior); assay: Test A preemergence, ragweed; conditions: 0 to 100 scale, 0 is no effect, 100 is complete control
Summary of the method: as §1

[4] = tested on: ryegrass, Italian (Lolium multiflorum); assay: Test A preemergence, Italian ryegrass; conditions: 0 to 100 scale, 0 is no effect, 100 is complete control
Summary of the method: as §1

[5] = tested on: foxtail, giant (Setaria faberii); assay: Test A preemergence, giant foxtail; conditions: 0 to 100 scale, 0 is no effect, 100 is complete control
Summary of the method: as §1

[6] = tested on: pigweed (Amaranthus retroflexus); assay: Test A preemergence, pigweed; conditions: 0 to 100 scale, 0 is no effect, 100 is complete control
Summary of the method: as §1

[7] = tested on: barnyardgrass (Echinochloa crus-galli); assay: Test A postemergence, barnyardgrass; conditions: 0 to 100 scale, 0 no effect, 100 complete control
Summary of the method: as §1

kochia (Kochia scoparia) [8] = assay: Test A postemergence, kochia; conditions: 0 to 100 scale, 0 no effect, 100 complete control
Summary of the method: as §1

[9] = tested on: ragweed (common ragweed, Ambrosia elatior); assay: Test A postemergence, ragweed; conditions: 0 to 100 scale, 0 no effect, 100 complete control
Summary of the method: as §1

[10] = tested on: ryegrass, Italian (Lolium multiflorum); assay: Test A postemergence, Italian ryegrass; conditions: 0 to 100 scale, 0 no effect, 100 complete control
Summary of the method: as §1

[11] = tested on: foxtail, giant (Setaria faberii); assay: Test A postemergence, giant foxtail; conditions: 0 to 100 scale, 0 no effect, 100 complete control
Summary of the method: as §1

[12] = tested on: pigweed (Amaranthus retroflexus); assay: Test A postemergence, pigweed; conditions: 0 to 100 scale, 0 no effect, 100 complete control
Summary of the method: as §1

[13] = tested on: wheat (Triticum aestivum); assay: Test A postemergence, wheat; conditions: 0 to 100 scale, 0 no effect, 100 complete control
Summary of the method: as §1

corn (Zea mays) = assay: Test A postemergence, corn; conditions: 0 to 100 scale, 0 no effect, 100 complete control
Summary of the method: as §1

[14] = tested on: blackgrass (Alopecurus myosuroides); assay: Test A postemergence, blackgrass; conditions: 0 to 100 scale, 0 no effect, 100 complete control
Summary of the method: as §1

[15] = tested on: galium (catchweed bedstraw, Galium aparine); assay: Test A postemergence, galium; conditions: 0 to 100 scale, 0 no effect, 100 complete control
Summary of the method: as §1

rice (Oryza sativa) = assay: Test B flooded paddy test, rice; conditions: Flood, 250 g ai/ha, applied to paddy water, 2-leaf stage, visual evaluation after 13 to 15 d
Summary of the method: (§2)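 Application was made into paddy water of pots flooded 3 cm deep at treatment, with seedlings at the 2-leaf stage. That flood level was kept throughout, and plants stayed under glass 13 to 15 d before visual assessment on a 0–100 control scale.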

[16] = tested on: sedge, umbrella (small-flower umbrella sedge, Cyperus difformis); assay: Test B flooded paddy test, umbrella sedge; conditions: Flood, 250 g ai/ha, applied to paddy water, 2-leaf stage, visual evaluation after 13 to 15 d
Summary of the method: as §2

[17] = tested on: ducksalad (Heteranthera limosa); assay: Test B flooded paddy test, ducksalad; conditions: Flood, 250 g ai/ha, applied to paddy water, 2-leaf stage, visual evaluation after 13 to 15 d
Summary of the method: as §2

[18] = tested on: barnyardgrass (Echinochloa crus-galli); assay: Test B flooded paddy test, barnyardgrass; conditions: Flood, 250 g ai/ha, applied to paddy water, 2-leaf stage, visual evaluation after 13 to 15 d
Summary of the method: as §2

Row | SMILES | Barnyardgrass plant response rating ([1]; 31 g ai/ha) | Barnyardgrass plant response rating ([1]; 125 g ai/ha) | Kochia plant response rating (kochia (Kochia scoparia) [2]; 31 g ai/ha) | Kochia plant response rating (kochia (Kochia scoparia) [2]; 125 g ai/ha) | Ragweed plant response rating ([3]; 31 g ai/ha) | Ragweed plant response rating ([3]; 125 g ai/ha) | Ryegrass, Italian plant response rating ([4]; 31 g ai/ha) | Ryegrass, Italian plant response rating ([4]; 125 g ai/ha) | Foxtail, Giant plant response rating ([5]; 31 g ai/ha) | Foxtail, Giant plant response rating ([5]; 125 g ai/ha) | Pigweed plant response rating ([6]; 31 g ai/ha) | Pigweed plant response rating ([6]; 125 g ai/ha) | Plant response rating, Barnyardgrass ([7]; 31 g ai/ha) | Plant response rating, Barnyardgrass ([7]; 125 g ai/ha) | Plant response rating, Kochia (kochia (Kochia scoparia) [8]; 31 g ai/ha) | Plant response rating, Kochia (kochia (Kochia scoparia) [8]; 125 g ai/ha) | Plant response rating, Ragweed ([9]; 31 g ai/ha) | Plant response rating, Ragweed ([9]; 125 g ai/ha) | Plant response rating, Ryegrass, Italian ([10]; 31 g ai/ha) | Plant response rating, Ryegrass, Italian ([10]; 125 g ai/ha) | other results
1 | C[C@@H](Nc1nc(N)c(C(F)(F)F)c(C(F)F)n1)c1cc2ccccc2s1 [Compound 109] | 0 | 0 | 80 | 90 | 30 | 90 | 20 | 40 | 0 | 30 | 70 | 90 | 0 | 0 | 50 | 70 | 50 | 60 | 0 | 0 | Plant response rating, Foxtail, Giant ([11]; 31 g ai/ha): 0; Plant response rating, Foxtail, Giant ([11]; 125 g ai/ha): 20; Plant response rating, Pigweed ([12]; 31 g ai/ha): 80; Plant response rating, Pigweed ([12]; 125 g ai/ha): 90; Plant response rating, Wheat ([13]; 31 g ai/ha): 0; Plant response rating, Wheat ([13]; 125 g ai/ha): 0; Plant response rating, Corn (corn (Zea mays); 31 g ai/ha): 0; Plant response rating, Corn (corn (Zea mays); 125 g ai/ha): 0; Plant response rating, Blackgrass ([14]; 31 g ai/ha): 10; Plant response rating, Blackgrass ([14]; 125 g ai/ha): 10; Plant response rating, Galium ([15]; 31 g ai/ha): 40; Plant response rating, Galium ([15]; 125 g ai/ha): 70; Plant response rating, Rice (0 to 100 scale, 0 is no effect, 100 is complete control) (rice (Oryza sativa)): 20; Plant response rating, Sedge, Umbrella (0 to 100 scale, 0 is no effect, 100 is complete control) [16]: 75; Plant response rating, Ducksalad (0 to 100 scale, 0 is no effect, 100 is complete control) [17]: 65; Plant response rating, Barnyardgrass (0 to 100 scale, 0 is no effect, 100 is complete control) [18]: 35
2 | C[C@@H](Nc1ncc([S+](C)[O-])c(N)n1)c1cc2ccccc2s1 (stereo partly drawn) [Compound 110] | 0 | 0 | 0 | 0 | 40 | 80 | 0 | 0 | 0 | 0 | 0 | 30 | 0 | 10 | 0 | 10 | 0 | 30 | 0 | 0 | Plant response rating, Foxtail, Giant ([11]; 31 g ai/ha): 0; Plant response rating, Foxtail, Giant ([11]; 125 g ai/ha): 0; Plant response rating, Pigweed ([12]; 31 g ai/ha): 60; Plant response rating, Pigweed ([12]; 125 g ai/ha): 80; Plant response rating, Wheat ([13]; 31 g ai/ha): 0; Plant response rating, Wheat ([13]; 125 g ai/ha): 0; Plant response rating, Corn (corn (Zea mays); 31 g ai/ha): 0; Plant response rating, Corn (corn (Zea mays); 125 g ai/ha): 10; Plant response rating, Blackgrass ([14]; 31 g ai/ha): 0; Plant response rating, Blackgrass ([14]; 125 g ai/ha): 0; Plant response rating, Galium ([15]; 31 g ai/ha): 30; Plant response rating, Galium ([15]; 125 g ai/ha): 70; Plant response rating, Rice (0 to 100 scale, 0 is no effect, 100 is complete control) (rice (Oryza sativa)): 15; Plant response rating, Sedge, Umbrella (0 to 100 scale, 0 is no effect, 100 is complete control) [16]: 90; Plant response rating, Ducksalad (0 to 100 scale, 0 is no effect, 100 is complete control) [17]: 60; Plant response rating, Barnyardgrass (0 to 100 scale, 0 is no effect, 100 is complete control) [18]: 20
3 | C[C@@H](Nc1nc(N)c(C(F)(F)F)c(C(F)F)n1)c1cc2ccccc2o1 [Compound 111] | 0 | 0 | 40 | 70 | 30 | 90 | 0 | 0 | 0 | 10 | 10 | 70 | 10 | 0 | 0 | 60 | 40 | 50 | 0 | 0 | Plant response rating, Foxtail, Giant ([11]; 31 g ai/ha): 0; Plant response rating, Foxtail, Giant ([11]; 125 g ai/ha): 0; Plant response rating, Pigweed ([12]; 31 g ai/ha): 50; Plant response rating, Pigweed ([12]; 125 g ai/ha): 80; Plant response rating, Wheat ([13]; 31 g ai/ha): 0; Plant response rating, Wheat ([13]; 125 g ai/ha): 0; Plant response rating, Corn (corn (Zea mays); 31 g ai/ha): 0; Plant response rating, Corn (corn (Zea mays); 125 g ai/ha): 20; Plant response rating, Blackgrass ([14]; 31 g ai/ha): 0; Plant response rating, Blackgrass ([14]; 125 g ai/ha): 0; Plant response rating, Galium ([15]; 31 g ai/ha): 20; Plant response rating, Galium ([15]; 125 g ai/ha): 50; Plant response rating, Rice (0 to 100 scale, 0 is no effect, 100 is complete control) (rice (Oryza sativa)): 0; Plant response rating, Sedge, Umbrella (0 to 100 scale, 0 is no effect, 100 is complete control) [16]: 0; Plant response rating, Ducksalad (0 to 100 scale, 0 is no effect, 100 is complete control) [17]: 0; Plant response rating, Barnyardgrass (0 to 100 scale, 0 is no effect, 100 is complete control) [18]: 0
